Measurements taken from PubChem BioAssay AID1794803 (Yongcheng Song lab at Baylor College of Medicine, 2022).
Activity calls are given as the source filed them.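 Rule for the calls: active = EC50 under 50 µM in a live-cell viability test; inactive = the rest.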

tested on: NB4 APL cells, proliferation, XTT absorbance; assay: NB4 APL cell antiproliferative activity – XTT viability, AHD inhibitor project, dose response (AID 1794803)

Q: Which EC50 does the source give for NC(=O)c1ccc(-c2ccc3cc(C(=O)NCC4CCNCC4)sc3c2)cc1 here?
A: > 51 µM (inactive)

Q: For O=C(NCC1CCNCC1)c1c[nH]c2cc(-c3ccc(N4CCCC4)cc3)ccc12, which EC50 is on record?
A: 50 µM

Q: O=C(NCC1CCNCC1)c1cc2ccc(-c3ccc(N4CCCC4)cc3)cc2s1 was tested. Which EC50 did it give?
A: 10 µM

Q: O=C(NCC1CCNCC1)c1c[nH]c2cc(-c3ccc(N4CCCCC4)cc3)ccc12 was tested. Which EC50 did it give?
A: 32 µM

Q: With O=C(NCC1CCNCC1)c1cc2ccc(-c3ccc(N4CCCCC4)cc3)cc2s1 as the compound, how does the EC50 read?
A: 5.3 µM

Q: Which EC50 does the source give for O=C(NCC1CCNCC1)c1cc2cc(-c3cn[nH]c3)ccc2[nH]1 here?
A: > 51 µM (inactive)

Q: Which EC50 does the source give for O=C(NCC1CCNCC1)c1cc2cc(-c3ccc(N4CCCCC4)cc3)ccc2[nH]1 here?
A: > 51 µM (inactive)

Q: For O=C(NCC1CCNCC1)c1coc2cc(-c3ccc(N4CCCCC4)cc3)ccc12, which EC50 is on record?
A: 11 µM

Q: For NCc1ccc(-c2ccc3cc(C(=O)NCC4CCNCC4)oc3c2)cc1, which EC50 is on record?
A: > 51 µM (inactive)

Q: With O=C(NCC1CCNCC1)c1cc2cc(-c3ccc(N4CCCCC4)cc3)ccc2s1 as the compound, how does the EC50 read?
A: 9.4 µM
